Reference: EP1370276B1, “INTERCELLULAR COMMUNICATION FACILITATING COMPOUNDS AND THEIR MEDICAL USE” (Zealand Pharma A/S, priority 2001, dated 2002)
pEC50, pIC50: −log10 of the molar value. Where two headings read alike, the source gives them in different places.

Experiments:
[1] = biological target: murine heart tissue preparations; assay: Displacement of [125I]AAP10 from murine heart tissue preparations; type: binding, mice
Procedure: Hearts are excised from mice (Balb/cJ, 20 g), rinsed twice in ice-cold (0°C) 0.32 M sucrose and homogenized on ice in 10 volumes of sucrose with an Ultra Turrax homogeniser (1000 rpm) for 2 minutes. The homogenate is centrifuged at 1000 gmea" for 10 minutes at 4° C and the supernatant collected and filtrated through 4 layers of gauze. The filtrate is then centrifuged at 50,000 gmean for 45 min at 4° C and the pellet resuspended in 10 volorg. wet weight ice-cold distilled water and incubated for 60 min at 0° C and re-centrifuged at 50,000 gmean at 45 min at 4° C. The resulting pellet is resuspended in 2 vol org. wet weight of PBS (Phosphate Buffered Saline) and stored at - 80° C until use.

[2] = system: phosphoinositol turnover in rat primary cardiomyocytes; assay: Phosphoinositol turnover in primary cardiomyocyte cultures; type: cell-based; settings: for pEC50: enhancement of phospho-inositol turnover
Procedure: Neonatal Wistar rats (1-2 days old) are used. Hank's calcium- and magnesium-free balanced salt solution, buffered with 10 mM HEPES is used for washing during cell separation procedures. The hearts are excised, the ventricles isolated and the tissue cut into small pieces. The myocardial cells are isolated by stepwise enzymatic degradation with collagenase 0.05%, as described by ^[35]. After repeated rounds of centrifugation and washing, the precipitated cells are resuspended in culture medium M199 with Earle's salt, 10% NCS, penicillin (75 U/mL), and streptomycin (75 U/mL) and pre-plated in a Petri dish for 90 minutes. The non-adherent cells are collected in the culture medium and plated in multidishes at 2.5*10^5 cells/well. The cultures are kept in a water-saturated CO2-incubator at 37°C. The cardiomyocyte cultures are used for analyses after 6-7 days.
Cardiomyocyte cultures are incubated for 48 hours in culture medium containing 4 µCi/mL myo-[2-^3H]inositol to label the inositol phospholipids. On the day of analysis the medium is replaced by a buffer solution containing lithium and incubated at 37°C, as described by Meier et al. ^[36]. After at least five minutes this buffer is replaced by the same volume of buffer containing test compound and incubated for exactly 20 minutes. The reaction is stopped by rapid replacement of the buffer by ice cold 4%v/v perchloric acid (PCA) and incubation for at least 20 minutes at 0°C. The PCA-extract is neutralised and the [^3H]inosltol phosphates are separated by anion-exchange chromatography using Amprep™ columns containing 100 mg SAX Quaternary amine. The [^3H]inositol mono-phosphates are eluted and radioactivity in the fraction measured by liquid scintillation counting.
Before adding test substances to the cultures, the cells are depleted of glucose and oxygen by incubating them in a N2-atmosphere in glucose-free lithium-buffer for 10 minutes at 37°C. Control cells are incubated likewise only at normal atmospheric conditions and in a buffer containing glucose.

[3] = system: isolated perfused rabbit hearts; assay: Isolated perfused rabbit heart (Langendorff), APD90 dispersion during hypokalemic ischemia; settings: 10^-10 mol/l
[4] = system: alkaline phosphatase (ALP) activity of human osteoblasts; assay: Alkaline phosphatase assay in human osteoblasts; type: cell-based
Procedure: Human osteblast cells (hOB): Cells were isolated from human bone marrow obtained by puncture of the posterior iliac spine of healthy volunteers (aged 20-36): 10-15 ml marrow material was collected in 15 ml PBS+Ca,Mg (Life Technologies, Cat.No. 14040) with 100 U/ml Heparin (Sigma, Cat.No. H-3149). The mononuclear fraction of the marrow was isolated on a Lymphoprep gradient (Nycomed Pharma, Cat.No. 1001967), by centrifugation at 2200 rpm for 30 min. After harvesting, the mononuclear fraction was washed once with culture medium and centrifuged at 1800 rpm for 10 min. Subsequently cells were counted and plated in culture medium at 8x10^6 cells/100 mm dish. hOB medium (all reagents obtained from Life Technologies): MEM w/o Phenol Red w/ Glutamax (Cat.No. 041-93013) supplemented with 10% heat inactivated fetal calf serum (Cat.No. 10106) and 0.1% Penicillin/Streptomycin (Cat.No. 15140). Medium was changed the following day and the cells were cultured at 37°C in 5%CO2 with medium change every 7 days. After 3-4 weeks of culture the cells had reached 70% confluence. […]
• Day 1: Cells were plated in 96-well plates at a conc. of 8000 cells/well (hOB) or 3000 cells/well (ROS) in 200 µl normal culture medium. • Day 2: Medium was changed on the cells. • Day 4: (Day 3 for ROS): Cells were washed with 200 µl MEM, 0.1% BSA (Sigma, Cat.No. A-9418). […] Absorbance was measured using a plate reader at 405 nm.

Substance: Ac-D-Tyr-D-Pro-D-4Hyp-Gly-D-Ala-Gly-NH2 [Compound 2]
- pIC50 ([1]; displacement of 0.8 nM [125I]AAP10, filtrate, read-out: Filtrate IC50): 8.44
- pIC50 ([1]; displacement of 0.8 nM [125I]AAP10, membranes, read-out: Membranes IC50): 8.92
- increase in phospho-inositol turnover compared with noradrenaline alone ([2]; 100 nM + noradrenaline (300 nM), anoxia and glucose deprivation): about 70%
- effect on noradrenaline (300 nM) induced increase in phospho-inositol turnover ([2]; 100 nM, control conditions): had no further effect
- pEC50 ([2]; Glucose and oxygen deprivation): 8.00
- pEC50 ([2]; Normal conditions): 8.00
- increase in APD90 dispersion during hypokalemic, acute myocardial ischemia [3]: prevented
- ALP activity ([4]; 1 × 10^-13 to 1 × 10^-6, normal culture conditions, 4 days): increased ALP activity at most of the concentrations tested
- stimulation of ALP activity during hypoxia compared with normoxia ([4]; 5% O2, four days, 10^-11 to 10^-8 mol/l): about 15%
